# Measurements from PubChem BioAssay AID1963838 (Molecular Pharmacology Branch, DTP, NCI, 2024).
# Test system: 855422-203-R-J1-PDC complex spheroid viability
# Experiment: Anticancer human tumor 855422-203-R-J1-PDC patient-derived bladder carcinoma cell line growth inhibition [POLQ]
# Conditions: for IC50: curve of first compound; for viability, T/C: stronger effect = lower value
# In short: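 PDC + HUVEC + MSC complex spheroids; POLQ inhibitors ± partner drugs; top conc. at/near clinical Cmax, else 10 microM (SN-38 1 microM), half-log dilutions; 37 degrees C, 5% CO2.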
# 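Note: spheroids exposed to compounds for seven days before readout.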
smiles,measurement,setting,value
CC(=O)O[C@H]1C(=O)[C@@]2(C)[C@H]([C@H](OC(=O)c3ccccc3)[C@]3(O)C[C@H](OC(=O)[C@H](O)[C@@H](NC(=O)c4ccccc4)c4ccccc4)C(C)=C1C3(C)C)[C@]1(OC(C)=O)CO[C@@H]1C[C@@H]2O + COC1C(OC(N)=O)C(O)C(Oc2ccc3c(O)c(NC(=O)c4ccc(O)c(CC=C(C)C)c4)c(=O)oc3c2C)OC1(C)C,IC50,second compound 0.0316 µM,< 9.49 nM
same,IC50,second compound 0.1 µM,< 9.49 nM
same,IC50,second compound 0.316 µM,< 9.49 nM
same,IC50,second compound 1 µM,< 9.49 nM
same,IC50,second compound 3.16 µM,< 9.49 nM
same,IC50,second compound 10 µM,< 9.49 nM
same,"viability, T/C","second compound 0.0316 µM, first compound 0.00949 µM",5.68%
same,"viability, T/C","second compound 0.0316 µM, first compound 0.03 µM",5.82%
same,"viability, T/C","second compound 0.0316 µM, first compound 0.0949 µM",5%
same,"viability, T/C","second compound 0.0316 µM, first compound 0.3 µM",6.46%
same,"viability, T/C","second compound 0.0316 µM, first compound 0.949 µM",5.84%
same,"viability, T/C","second compound 0.0316 µM, first compound 3 µM",5.17%
same,"viability, T/C","second compound 0.1 µM, first compound 0.00949 µM",5.77%
same,"viability, T/C","second compound 0.1 µM, first compound 0.03 µM",6.65%
same,"viability, T/C","second compound 0.1 µM, first compound 0.0949 µM",5.15%
same,"viability, T/C","second compound 0.1 µM, first compound 0.3 µM",4.93%
same,"viability, T/C","second compound 0.1 µM, first compound 0.949 µM",5.98%
same,"viability, T/C","second compound 0.1 µM, first compound 3 µM",4.74%
same,"viability, T/C","second compound 0.316 µM, first compound 0.00949 µM",8.12%
same,"viability, T/C","second compound 0.316 µM, first compound 0.03 µM",6.43%
same,"viability, T/C","second compound 0.316 µM, first compound 0.0949 µM",5.94%
same,"viability, T/C","second compound 0.316 µM, first compound 0.3 µM",4.73%
same,"viability, T/C","second compound 0.316 µM, first compound 0.949 µM",4.96%
same,"viability, T/C","second compound 0.316 µM, first compound 3 µM",5.68%
same,"viability, T/C","second compound 1 µM, first compound 0.00949 µM",7.33%
same,"viability, T/C","second compound 1 µM, first compound 0.03 µM",6.18%
same,"viability, T/C","second compound 1 µM, first compound 0.0949 µM",5.96%
same,"viability, T/C","second compound 1 µM, first compound 0.3 µM",5.56%
same,"viability, T/C","second compound 1 µM, first compound 0.949 µM",6.11%
same,"viability, T/C","second compound 1 µM, first compound 3 µM",6.43%
same,"viability, T/C","second compound 3.16 µM, first compound 0.00949 µM",6.84%
same,"viability, T/C","second compound 3.16 µM, first compound 0.03 µM",6.73%
same,"viability, T/C","second compound 3.16 µM, first compound 0.0949 µM",5.34%
same,"viability, T/C","second compound 3.16 µM, first compound 0.3 µM",5.02%
same,"viability, T/C","second compound 3.16 µM, first compound 0.949 µM",5.62%
same,"viability, T/C","second compound 3.16 µM, first compound 3 µM",6.32%
same,"viability, T/C","second compound 10 µM, first compound 0.00949 µM",7.25%
same,"viability, T/C","second compound 10 µM, first compound 0.03 µM",6.33%
same,"viability, T/C","second compound 10 µM, first compound 0.0949 µM",5.51%
same,"viability, T/C","second compound 10 µM, first compound 0.3 µM",5.78%
same,"viability, T/C","second compound 10 µM, first compound 0.949 µM",5.59%
same,"viability, T/C","second compound 10 µM, first compound 3 µM",6.4%
Cn1ncnc1[C@H]1c2n[nH]c(=O)c3cc(F)cc(c23)N[C@@H]1c1ccc(F)cc1 + COC1C(OC(N)=O)C(O)C(Oc2ccc3c(O)c(NC(=O)c4ccc(O)c(CC=C(C)C)c4)c(=O)oc3c2C)OC1(C)C,IC50,second compound 0.0316 µM,> 100 nM
same,IC50,second compound 0.1 µM,> 100 nM
same,IC50,second compound 0.316 µM,> 100 nM
same,IC50,second compound 1 µM,> 100 nM
same,IC50,second compound 3.16 µM,> 100 nM
same,IC50,second compound 10 µM,> 100 nM
same,"viability, T/C","second compound 0.0316 µM, first compound 0.000316 µM",94.6%
same,"viability, T/C","second compound 0.0316 µM, first compound 0.001 µM",104%
same,"viability, T/C","second compound 0.0316 µM, first compound 0.00316 µM",116%
same,"viability, T/C","second compound 0.0316 µM, first compound 0.01 µM",106%
same,"viability, T/C","second compound 0.0316 µM, first compound 0.0316 µM",108%
same,"viability, T/C","second compound 0.0316 µM, first compound 0.1 µM",108%
same,"viability, T/C","second compound 0.1 µM, first compound 0.000316 µM",81.8%
same,"viability, T/C","second compound 0.1 µM, first compound 0.001 µM",93.8%
same,"viability, T/C","second compound 0.1 µM, first compound 0.00316 µM",113%
same,"viability, T/C","second compound 0.1 µM, first compound 0.01 µM",95.3%
same,"viability, T/C","second compound 0.1 µM, first compound 0.0316 µM",99.7%
same,"viability, T/C","second compound 0.1 µM, first compound 0.1 µM",96.6%
same,"viability, T/C","second compound 0.316 µM, first compound 0.000316 µM",106%
same,"viability, T/C","second compound 0.316 µM, first compound 0.001 µM",106%
same,"viability, T/C","second compound 0.316 µM, first compound 0.00316 µM",101%
same,"viability, T/C","second compound 0.316 µM, first compound 0.01 µM",108%
same,"viability, T/C","second compound 0.316 µM, first compound 0.0316 µM",95.4%
same,"viability, T/C","second compound 0.316 µM, first compound 0.1 µM",118%
same,"viability, T/C","second compound 1 µM, first compound 0.000316 µM",110%
same,"viability, T/C","second compound 1 µM, first compound 0.001 µM",99.7%
same,"viability, T/C","second compound 1 µM, first compound 0.00316 µM",106%
same,"viability, T/C","second compound 1 µM, first compound 0.01 µM",107%
same,"viability, T/C","second compound 1 µM, first compound 0.0316 µM",103%
same,"viability, T/C","second compound 1 µM, first compound 0.1 µM",95.9%
same,"viability, T/C","second compound 3.16 µM, first compound 0.000316 µM",105%
same,"viability, T/C","second compound 3.16 µM, first compound 0.001 µM",106%
same,"viability, T/C","second compound 3.16 µM, first compound 0.00316 µM",98.2%
same,"viability, T/C","second compound 3.16 µM, first compound 0.01 µM",94.4%
same,"viability, T/C","second compound 3.16 µM, first compound 0.0316 µM",95.9%
same,"viability, T/C","second compound 3.16 µM, first compound 0.1 µM",102%
same,"viability, T/C","second compound 10 µM, first compound 0.000316 µM",108%
same,"viability, T/C","second compound 10 µM, first compound 0.001 µM",97.2%
same,"viability, T/C","second compound 10 µM, first compound 0.00316 µM",101%
same,"viability, T/C","second compound 10 µM, first compound 0.01 µM",109%
same,"viability, T/C","second compound 10 µM, first compound 0.0316 µM",100%
same,"viability, T/C","second compound 10 µM, first compound 0.1 µM",84%
